Laboratory results published in patent US20250051337A1 (priority 2021, published 2025).

How the values were obtained:
[1] = biological target: T1, STK4 (Homo sapiens (Human), UniProt Q13043); assay: ADP-Glo kinase assay, STK4; type: biochemical; settings: ADP-Glo, 50 μM ATP; read-out: STK4 IC50
Summary of the method: (§1)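 ADP-Glo readout at 50 μM ATP with 50 ng full-length enzyme: STK4 on 300 μg/mL Axltide substrate, STK3 on 250 μg/mL myelin basic protein. Done as three independent runs in triplicate.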

[2] = biological target: T2, STK3 (Homo sapiens (Human), UniProt Q13188); assay: Thermal shift assay (ThermoFluor differential scanning fluorimetry); type: binding; settings: for ΔTm at 10 µM: read-out: ΔTm; for Tm shift: Tm of STK3 or STK4, text statement
Experimental: Temperature-dependent protein unfolding profiles were measured using a Real-Time PCR Mx3005p machine (Stratagene: San Diego, CA, USA). Data evaluation and melting temperature calculation were performed using Protein Thermal Shift™ Software v1.2.
To further evaluate binding of these compounds to STK3/4, differential scanning fluorimetry (protein thermal shift using ThermoFluor technology) assay was used to benchmark the capacity to stabilize the kinase domain. The melting temperature (Tm) of STK3 or STK4 was measured in the presence of vehicle (DMSO) or 6, 11 or 23.

[3] = biological target: T1, STK4; assay: NanoBRET intracellular kinase assay, STK4; type: cell-based; settings: transfected HEK293 cells, 2 h
Experimental: (§2) Full-length STK3, STK4, and LRRK2 kinase was cloned in-frame with a C-terminal NanoLuc-fusion (Promega: Madison, WI, USA) and the plasmid was transfected into HEK293T cells using FuGENE HD (Promega, E2312). […] After 2 h at 37° C. in a 5% CO2 atmosphere, NanoBRET NanoGlo Substrate+Extra-cellular NanoLuc Inhibitor (Promega, N2540) was added, and filtered luminescence was measured on a PHERAstar plate reader (BMG Labtech; Ortenberg, Germany) equipped with a lumi-nescence filter pair (450 nm BP filter (donor) and 610 nm LP filter (acceptor)).
(§3) This assay measured the apparent affinity of test compounds by competitive displacement of the NanoBRET™ tracer, reversibly bound to a NanoLuc® luciferase-kinase fusion in cells. To evaluate potential off-target activity of the inhibitors, the inhibition of LRRK2 in live cells by the STK3/4 inhibitors compounds described herein were measured. […] A 50 nM tracer and these compounds were added to cells and incubated for 2 h.

[4] = test system: YAP/TAZ-TEAD activity (8×GTIIC-luciferase) in HEK293 cells; assay: YAP-TAZ-TEAD luciferase assay; type: cell-based; settings: 10 μM, 48 h, vs DMSO
Experimental: 8×GTIIC-luciferase was a gift from Stefano Piccolo (Addgene plasmid #34615, http://n2t.net/addgene: 34615: RRID: Addgene_34615). HEK293 cells were transfected with 8×GTIIC-luciferase plasmid and control Renilla luciferase plasmid using jetPRIME transfection reagent (Polyplus-transfection RSA: New York, NY. USA) for 24 h and cultured in Dulbeco's Modified Eagle Media (DMEM) Glutamax supplemented with 10% Fetal Bovine Serum (FBS), antibiotic/antimycotic, and sodium pyruvate (Gibco. Thermo FisherScientific: Waltham. MA. USA). The transfected cells were treated with 10 μM compound in triplicate and incubated for 48 h at 37° C. Firefly and Renilla luminescence were detected with a Dual-Glo Luciferase Assay System (Promega #E2920) according to the manufacturer's recommendations. The ratio of firefly to Renilla luminescence was calculated for each well and normalized to the ratio in control cells incubated with DMSO.
STK3/4 can negatively regulate the activity of the YAP/TAZ-TEAD protein complex and, accordingly, inactivation of these kinases reduces the transcription of YAP/TAZ-TEAD target genes. […] The results confirmed the intracellular on-target activity of our potent compounds for inhibiting STK3 and STK4 activity and targeting gene expression in the Hippo signaling pathway.

[5] = biological target: T2, STK3; assay: ADP-Glo kinase assay, STK3; type: biochemical; settings: ADP-Glo, 50 μM ATP; read-out: STK3 IC50
Summary of the method: as §1

[6] = biological target: T2, STK3; assay: NanoBRET intracellular kinase assay, STK3; type: cell-based; settings: NanoBRET, transfected HEK293 cells, 2 h; read-out: STK3: IC50
Experimental: as §2, §3

[7] = in vivo; settings: female, C57BL/6J, mouse, ip, 10 mg/kg
Experimental: All animal procedures were approved by the Sanford Burnham Prebys Medical Discovery Institute Institutional Animal Care and Use Committee and were performed according to the NIH guidelines for the Care and Use of Laboratory Animals. Adult female C57BL/6J mice were purchased from Jackson Laboratories and housed with free access to food and water on a 12 h light/dark cycle. Compounds were formulated in 5% DMSO, 10% Tween-80, and 85% H2O and injected intraperitoneally at 10 or 20 mg/kg. Blood samples were collected retro-orbitally at the indicated times and plasma was prepared by centrifugation. Livers were collected post mortem at the indicated times.
For quantification of compound, plasma samples were extracted with acetonitrile: water 4:1 with 0.1% formic acid containing indomethacin as an internal standard. Samples were centrifuged and the supernatants were diluted with acetonitrile: water and analyzed by LC-MS/MS using a Shimadzu Nexera X2 High-performance liquid chromatography (HPLC) (Shimadzu Scientific Instruments: Kyoto, Japan) coupled to an AB Sciex 6500 QTRAP (AB Sciex LLC: Toronto, Canada).

T2 sequence (Q13188 whole entry): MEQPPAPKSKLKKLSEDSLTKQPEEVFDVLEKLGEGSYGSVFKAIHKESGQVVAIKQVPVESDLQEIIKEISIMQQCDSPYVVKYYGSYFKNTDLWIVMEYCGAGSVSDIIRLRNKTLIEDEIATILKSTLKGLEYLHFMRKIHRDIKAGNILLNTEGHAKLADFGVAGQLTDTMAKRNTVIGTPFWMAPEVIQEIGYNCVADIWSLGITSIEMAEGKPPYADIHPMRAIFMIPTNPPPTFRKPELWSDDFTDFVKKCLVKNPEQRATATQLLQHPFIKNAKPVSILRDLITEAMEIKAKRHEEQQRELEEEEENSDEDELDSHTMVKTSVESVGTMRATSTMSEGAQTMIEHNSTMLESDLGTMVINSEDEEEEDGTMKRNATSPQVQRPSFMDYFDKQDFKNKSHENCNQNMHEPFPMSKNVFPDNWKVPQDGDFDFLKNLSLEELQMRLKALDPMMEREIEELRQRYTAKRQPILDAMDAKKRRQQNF
T1 sequence (Q13043 whole entry): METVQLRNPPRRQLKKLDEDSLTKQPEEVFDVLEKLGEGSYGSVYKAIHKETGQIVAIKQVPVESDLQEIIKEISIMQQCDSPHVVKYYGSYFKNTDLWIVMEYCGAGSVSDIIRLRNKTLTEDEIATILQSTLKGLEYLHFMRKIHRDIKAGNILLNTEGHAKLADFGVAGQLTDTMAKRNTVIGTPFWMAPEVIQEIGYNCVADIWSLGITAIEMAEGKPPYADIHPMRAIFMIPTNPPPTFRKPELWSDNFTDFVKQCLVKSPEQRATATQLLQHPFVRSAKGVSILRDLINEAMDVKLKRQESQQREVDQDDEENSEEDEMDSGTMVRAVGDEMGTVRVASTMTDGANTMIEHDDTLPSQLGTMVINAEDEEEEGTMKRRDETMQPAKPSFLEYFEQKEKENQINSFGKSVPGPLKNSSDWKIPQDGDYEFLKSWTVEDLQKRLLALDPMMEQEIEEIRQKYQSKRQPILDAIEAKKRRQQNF

Compound	IC50 [1] [nM]	ΔTm at 10 µM [2] [°C]	IC50 [3] [nM]	YAP/TAZ-TEAD activity (luciferase reporter) [4]	IC50 [5] [nM]	IC50 [6] [nM]	AUC(0-t) [7] [µM·h]	Cmax [7] [µM]	Tmax [7] [min]	half-life [7] [min]	Tm shift [2]
Clc1cccc(-c2c[nH]c3ncnc(N4CCOCC4)c23)c1 [Compound 6, 4-(5-(3-Chlorophenyl)-7H-pyrrolo[2,3-d]pyrimidin-4-yl)morpholine]	< 1000	8.1	< 1000	marked increase							
NC(=O)c1cccc(-c2c[nH]c3ncnc(N4CCOCC4)c23)c1 [Compound 11, 3-(4-Morpholino-7H-pyrrolo[2,3-d]pyrimidin-5-yl)benzamide]		7.4		marked increase	< 1000	< 1000	9.5	10.9	30	42	
OC1CCN(c2ncnc3[nH]cc(-c4cccc(Cl)c4)c23)CC1 [Compound 16, 1-(5-(3-Chlorophenyl)-7H-pyrrolo[2,3-d]pyrimidin-4-yl)piperidin-4-ol]	< 1000	8	< 1000	marked increase	< 1000	< 1000	4.3	5.8	15	594	comparable results
Clc1cccc(-c2c[nH]c3nccc(N4CCOCC4)c23)c1 [Compound 23, 4-(3-(3-chlorophenyl)-1H-pyrrolo[2,3-b]pyridin-4-yl)morpholine]	< 1000	7.9	< 1000	marked increase	< 1000	< 1000					> 7.4 °C
CC(=O)NC1CCN(c2ncnc3[nH]cc(-c4cccc(Cl)c4)c23)CC1 [Compound 105, N-(1-(5-(3-chlorophenyl)-7H-pyrrolo[2,3-d]pyrimidin-4-yl)piperidin-4-yl)acetamide]	< 1000		< 1000		< 1000	< 1000	8.1	11.8	15	318	
